Columns and labels:
[1] = target: T1, Human CD73 (amino acid residues 27-549) (Homo sapiens, UniProt P21589); experiment: CD73 enzymatic assay (luciferase-based indirect assay, CellTiter-Glo); type: biochemical; conditions: 0.4 nM CD73, 150 μM AMP, 1 hour at room temperature
T1 construct: Human CD73 (amino acid residues 27-549); His tag (N); made in house; host or cells: E. coli
T1 sequence (P21589 27-549): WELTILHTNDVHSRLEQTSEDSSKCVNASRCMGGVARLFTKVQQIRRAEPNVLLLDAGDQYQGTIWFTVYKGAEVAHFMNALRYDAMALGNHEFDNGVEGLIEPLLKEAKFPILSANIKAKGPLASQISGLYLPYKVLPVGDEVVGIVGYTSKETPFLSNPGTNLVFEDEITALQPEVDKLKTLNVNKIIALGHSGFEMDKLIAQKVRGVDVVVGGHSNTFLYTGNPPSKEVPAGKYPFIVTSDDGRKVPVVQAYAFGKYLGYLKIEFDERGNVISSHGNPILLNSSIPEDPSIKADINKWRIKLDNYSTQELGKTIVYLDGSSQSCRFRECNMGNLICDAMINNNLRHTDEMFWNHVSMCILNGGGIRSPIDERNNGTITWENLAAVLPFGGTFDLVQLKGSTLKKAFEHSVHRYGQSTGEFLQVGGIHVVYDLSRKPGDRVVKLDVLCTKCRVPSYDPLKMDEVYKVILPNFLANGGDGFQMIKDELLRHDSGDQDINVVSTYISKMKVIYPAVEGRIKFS
In short: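 His-tagged human CD73 (27-549) from E. coli, 0.4 nM, with 150 μM AMP in 50 mM HEPES pH 7.4, 0.01% Tween 20; 1 h at room temperature. AMP remaining read by CellTiter-Glo 2.0 luminescence with 1 μM final ATP after 30 min. IC50 from nonlinear regression of % inhibition.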

human CD73 = target: T2, human CD73 (Homo sapiens, UniProt P21589); experiment: Inhibitor activity against CD73 in cell based assay (CD73 expressing CHO-K1 cells); conditions: CHO-K1 cells expressing human CD73, 150 μM AMP, 4 hours of incubation; read-out: CHO-K1 CELL VARIANT: CD73 IC50
T2 construct: expressed in transfected cells
T2 sequence (P21589 27-549): T1 sequence (P21589 27-549)
In short: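 Stably transfected CHO-K1 cells expressing human CD73 (1×10^4/well) incubated 4 h with compound (8-point 1:3 titration, top 10 μM final, 0.2% DMSO) and 150 μM AMP. Residual AMP in supernatant measured by CellTiter-Glo luminescence with 1 μM ATP after 30 min at room temperature; IC50 by nonlinear regression of percent inhibition vs high/low controls.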

| SMILES | IC50 [1] | IC50 (human CD73) |
| --- | --- | --- |
| O=C(N[C@H]1CC[C@H](NS(=O)(=O)CCC(F)(F)F)CC1)O[C@@H]1CCN(c2cn[nH]c(=O)c2Cl)C1 [P-0304, (R)-1-(5-chloro-6-oxo-1,6-dihydropyridazin-4-yl)pyrrolidin-3-yl ((1r,4R)-4-((3,3,3-trifluoropropyl)sulfonamido)cyclohexyl)carbamate] | 0.001 to 10 µM | 0.001 to 10 µM |
| O=C(N[C@H]1CC[C@H](NS(=O)(=O)CC(F)(F)F)CC1)O[C@@H]1CCN(c2cn[nH]c(=O)c2Cl)C1 [P-0305, (R)-1-(5-chloro-6-oxo-1,6-dihydropyridazin-4-yl)pyrrolidin-3-yl ((1r,4R)-4-((2,2,2-trifluoroethyl)sulfonamido)cyclohexyl)carbamate] | 0.001 to 10 µM | 0.001 to 10 µM |
| O=C(N[C@H]1CC[C@H](NS(=O)(=O)Cc2ccccc2)CC1)O[C@@H]1CCN(c2cn[nH]c(=O)c2Cl)C1 [P-0306, (R)-1-(5-chloro-6-oxo-1,6-dihydropyridazin-4-yl)pyrrolidin-3-yl ((1r,4R)-4-((phenylmethyl)sulfonamido)cyclohexyl)carbamate] | 0.001 to 10 µM | 0.001 to 10 µM |
| N#CCS(=O)(=O)N[C@H]1CC[C@H](NC(=O)O[C@@H]2CCN(c3cn[nH]c(=O)c3Cl)C2)CC1 [P-0307, (R)-1-(5-chloro-6-oxo-1,6-dihydropyridazin-4-yl)pyrrolidin-3-yl ((1r,4R)-4-((cyanomethyl)sulfonamido)cyclohexyl)carbamate] | 0.001 to 10 µM | 0.001 to 10 µM |
| C=CS(=O)(=O)N[C@H]1CC[C@H](NC(=O)O[C@@H]2CCN(c3cn[nH]c(=O)c3Cl)C2)CC1 [P-0308, (R)-1-(5-chloro-6-oxo-1,6-dihydropyridazin-4-yl)pyrrolidin-3-yl ((1r,4R)-4-(vinylsulfonamido)cyclohexyl) carbamate] | 0.001 to 10 µM | 0.001 to 10 µM |
| O=C(N[C@H]1CC[C@H](NS(=O)(=O)c2c[nH]cn2)CC1)O[C@@H]1CCN(c2cn[nH]c(=O)c2Cl)C1 [P-0309, (R)-1-(5-chloro-6-oxo-1,6-dihydropyridazin-4-yl)pyrrolidin-3-yl ((1r,4R)-4-(1H-imidazole-4-sulfonamido)cyclohexyl) carbamate] | 0.001 to 10 µM | 0.001 to 10 µM |
| CN1CCN(S(=O)(=O)N[C@H]2CC[C@H](NC(=O)O[C@@H]3CCN(c4cn[nH]c(=O)c4Cl)C3)CC2)CC1 [P-0310, (R)-1-(5-chloro-6-oxo-1,6-dihydropyridazin-4-yl)pyrrolidin-3-yl ((1r,4R)-4-((4-methylpiperazine)-1-sulfonamido)cyclohexyl) carbamate] | 0.001 to 10 µM | 0.001 to 10 µM |
| CC(C)NS(=O)(=O)N[C@H]1CC[C@H](NC(=O)O[C@@H]2CCN(c3cn[nH]c(=O)c3Cl)C2)CC1 [P-0311, (R)-1-(5-chloro-6-oxo-1,6-dihydropyridazin-4-yl)pyrrolidin-3-yl ((1r,4R)-4-((N-isopropylsulfamoyl)amino)cyclohexyl)carbamate] | 0.001 to 10 µM | 0.001 to 10 µM |
| CNS(=O)(=O)N[C@H]1CC[C@H](NC(=O)O[C@@H]2CCN(c3cn[nH]c(=O)c3Cl)C2)CC1 [P-0312, (R)-1-(5-chloro-6-oxo-1,6-dihydropyridazin-4-yl)pyrrolidin-3-yl ((1r,4R)-4-((N-methylsulfamoyl)amino)cyclohexyl)carbamate] | 0.001 to 10 µM | 0.001 to 10 µM |
| CC1(S(=O)(=O)N[C@H]2CC[C@H](NC(=O)O[C@@H]3CCN(c4cn[nH]c(=O)c4Cl)C3)CC2)CC1 [P-0313, (R)-1-(5-chloro-6-oxo-1,6-dihydropyridazin-4-yl)pyrrolidin-3-yl ((1r,4R)-4-((1-methylcyclopropane)-1-sulfonamido)cyclohexyl) carbamate] | 0.001 to 10 µM | 0.001 to 10 µM |
| O=C(N[C@H]1CC[C@H](NC(=O)c2ccccc2F)CC1)O[C@@H]1CCN(c2cn[nH]c(=O)c2Cl)C1 [P-0314, (R)-1-(5-chloro-6-oxo-1,6-dihydropyridazin-4-yl)pyrrolidin-3-yl ((1r,4R)-4-(2-fluorobenzamido)cyclohexyl) carbamate] | 0.001 to 10 µM | 0.001 to 10 µM |
| O=C(N[C@H]1CC[C@H](NC(=O)c2cccc(F)c2)CC1)O[C@@H]1CCN(c2cn[nH]c(=O)c2Cl)C1 [P-0315, (R)-1-(5-chloro-6-oxo-1,6-dihydropyridazin-4-yl)pyrrolidin-3-yl ((1r,4R)-4-(3-fluorobenzamido)cyclohexyl) carbamate] | 0.001 to 10 µM | 0.001 to 10 µM |
| Cc1ccccc1C(=O)N[C@H]1CC[C@H](NC(=O)O[C@@H]2CCN(c3cn[nH]c(=O)c3Cl)C2)CC1 [P-0316, (R)-1-(5-chloro-6-oxo-1,6-dihydropyridazin-4-yl)pyrrolidin-3-yl ((1r,4R)-4-(2-methylbenzamido)cyclohexyl) carbamate] | 0.001 to 10 µM | 0.001 to 10 µM |
| Cc1cccc(C(=O)N[C@H]2CC[C@H](NC(=O)O[C@@H]3CCN(c4cn[nH]c(=O)c4Cl)C3)CC2)c1 [P-0317, (R)-1-(5-chloro-6-oxo-1,6-dihydropyridazin-4-yl)pyrrolidin-3-yl ((1r,4R)-4-(3-methylbenzamido)cyclohexyl) carbamate] | 0.001 to 10 µM | 0.001 to 10 µM |
| O=C(N[C@H]1CC[C@H](NC(=O)c2ccc(C(F)(F)F)nc2)CC1)O[C@@H]1CCN(c2cn[nH]c(=O)c2Cl)C1 [P-0318, (R)-1-(5-chloro-6-oxo-1,6-dihydropyridazin-4-yl)pyrrolidin-3-yl ((1r,4R)-4-(6-(trifluoromethyl)nicotinamido)cyclohexyl)carbamate] | 0.001 to 10 µM | 0.001 to 10 µM |
| CNC(=O)N[C@H]1CC[C@H](NC(=O)O[C@@H]2CCN(c3cn[nH]c(=O)c3Cl)C2)CC1 [P-0319, (R)-1-(5-chloro-6-oxo-1,6-dihydropyridazin-4-yl)pyrrolidin-3-yl ((1r,4R)-4-(3-methylureido)cyclohexyl) carbamate] | 0.001 to 10 µM | 0.001 to 10 µM |
| CC(C)NC(=O)N[C@H]1CC[C@H](NC(=O)O[C@@H]2CCN(c3cn[nH]c(=O)c3Cl)C2)CC1 [P-0320, (R)-1-(5-chloro-6-oxo-1,6-dihydropyridazin-4-yl)pyrrolidin-3-yl ((1r,4R)-4-(3-isopropylureido)cyclohexyl) carbamate] | 0.001 to 10 µM | 0.001 to 10 µM |
| Cc1ccc(NC(=O)N[C@H]2CC[C@H](NC(=O)O[C@@H]3CCN(c4cn[nH]c(=O)c4Cl)C3)CC2)cc1 [P-0321, (R)-1-(5-chloro-6-oxo-1,6-dihydropyridazin-4-yl)pyrrolidin-3-yl ((1r,4R)-4-(3-(p-tolyl)ureido)cyclohexyl) carbamate] | 0.001 to 10 µM | 0.001 to 10 µM |
| N#Cc1ccc(NC(=O)N[C@H]2CC[C@H](NC(=O)O[C@@H]3CCN(c4cn[nH]c(=O)c4Cl)C3)CC2)cc1 [P-0322, (R)-1-(5-chloro-6-oxo-1,6-dihydropyridazin-4-yl)pyrrolidin-3-yl ((1r,4R)-4-(3-(4-cyanophenyl)ureido)cyclohexyl)carbamate] | 0.001 to 10 µM | 0.001 to 10 µM |
| O=C(Nc1ccc(F)cc1F)N[C@H]1CC[C@H](NC(=O)O[C@@H]2CCN(c3cn[nH]c(=O)c3Cl)C2)CC1 [P-0323, (R)-1-(5-chloro-6-oxo-1,6-dihydropyridazin-4-yl)pyrrolidin-3-yl ((1r,4R)-4-(3-(2,4-difluorophenyl)ureido)cyclohexyl)carbamate] | 0.001 to 10 µM | 0.001 to 10 µM |
| O=C(NCC(F)(F)F)N[C@H]1CC[C@H](NC(=O)O[C@@H]2CCN(c3cn[nH]c(=O)c3Cl)C2)CC1 [P-0324, (R)-1-(5-chloro-6-oxo-1,6-dihydropyridazin-4-yl)pyrrolidin-3-yl ((1r,4R)-4-(3-(2,2,2-trifluoroethyl)ureido)cyclohexyl)carbamate] | 0.001 to 10 µM | 0.001 to 10 µM |
| COC(=O)N[C@H]1CC[C@H](NC(=O)O[C@@H]2CCN(c3cn[nH]c(=O)c3Cl)C2)CC1 [P-0325, (R)-1-(5-chloro-6-oxo-1,6-dihydropyridazin-4-yl)pyrrolidin-3-yl methyl ((1R,4r)-cyclohexane-1,4-diyl)dicarbamate] | 0.001 to 10 µM | 0.001 to 10 µM |
| O=C(NC1CC1)N[C@H]1CC[C@@H](NC(=O)O[C@@H]2CCN(c3cn[nH]c(=O)c3Cl)C2)CC1 [P-0326, (R)-1-(5-chloro-6-oxo-1,6-dihydropyridazin-4-yl)pyrrolidin-3-yl ((1s,4S)-4-(3-cyclopropylureido)cyclohexyl) carbamate] | 0.001 to 10 µM | 0.001 to 10 µM |
| CC(C)(C)C(=O)N[C@H]1CC[C@@H](NC(=O)O[C@@H]2CCN(c3cn[nH]c(=O)c3Cl)C2)CC1 [P-0327, (R)-1-(5-chloro-6-oxo-1,6-dihydropyridazin-4-yl)pyrrolidin-3-yl ((1s,4S)-4-pivalamidocyclohexyl) carbamate] | 0.001 to 10 µM | 0.001 to 10 µM |
